According to paper PMC9898036, “VIP152 is a selective CDK9 inhibitor with pre-clinical in vitro and in vivo efficacy in chronic lymphocytic leukemia” (Leukemia, 2022):
Where two headings read alike, the source gives them in different places.

Tests used:
Test in all cases: DiscoverX KINOMEscan kinase profiling (468 assays)
Assay type in all cases: binding
human kinome [1] = target: human kinome (Homo sapiens, UniProt P45983); settings: JNK1 (Entrez MAPK8); 100 nM; read-out: Percent Control
Outline: (§1)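 VIP152 was run in DMSO, alongside a DMSO control. Readout was qPCR of DNA-tagged kinase still bound to bead-immobilized biotinylated kinase ligands after compound competition.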

human kinome [2] = target: human kinome (Homo sapiens, UniProt O95819); settings: MAP4K4; 100 nM; read-out: Percent Control
Outline: as §1

human kinome [3] = target: human kinome (Homo sapiens, UniProt O76039); settings: CDKL5; 100 nM; read-out: Percent Control
Outline: as §1

human kinome [4] = target: human kinome (Homo sapiens, UniProt Q9HAZ1); settings: CLK4; 100 nM; read-out: Percent Control
Outline: as §1

human kinome [5] = target: human kinome (Homo sapiens, UniProt P27361); settings: ERK1 (Entrez MAPK3); 100 nM; read-out: Percent Control
Outline: as §1

human kinome [6] = target: human kinome (Homo sapiens, UniProt P52333); settings: JAK3(JH1domain-catalytic); 100 nM; read-out: Percent Control
Outline: as §1

human kinome [7] = target: human kinome (Homo sapiens, UniProt O75676); settings: compound concentration 1000 nM, read-out: Percent Control
Outline: as §1

human kinome [8] = target: human kinome (Homo sapiens, UniProt O75747); settings: read-out: Percent Control
Outline: as §1

human kinome [9] = target: human kinome (Homo sapiens, UniProt P54762); settings: EPHB1; 100 nM; read-out: Percent Control
Outline: as §1

human kinome [10] = target: human kinome (Homo sapiens, UniProt Q16513); settings: read-out: Percent Control
Outline: as §1

human kinome [11] = target: human kinome (Homo sapiens, UniProt Q9Y4K4); settings: MAP4K5; 100 nM; read-out: Percent Control
Outline: as §1

human kinome [12] = target: human kinome (Homo sapiens, UniProt P36888, R834Q); settings: FLT3(R834Q); 100 nM; read-out: Percent Control
Outline: as §1

human kinome [13] = target: human kinome (Homo sapiens, UniProt O14976); settings: GAK; 100 nM; read-out: Percent Control
Outline: as §1

human kinome [14] = target: human kinome (Homo sapiens, UniProt P00533, L858R); settings: EGFR(L858R); 100 nM; read-out: Percent Control
Outline: as §1

human kinome [15] = target: human kinome (Homo sapiens, UniProt P10721, L576P); settings: KIT(L576P); 100 nM; read-out: Percent Control
Outline: as §1

human kinome [16] = target: human kinome (Homo sapiens, UniProt Q59H18); settings: kinase TNNI3K (Entrez TNNI3K); compound concentration 1000 nM; read-out: Percent Control
Outline: as §1

human kinome [17] = target: human kinome (Homo sapiens, UniProt Q6DT37); settings: DMPK2 (Entrez CDC42BPG); 100 nM; read-out: Percent Control
Outline: as §1

human kinome [18] = target: human kinome (Homo sapiens, UniProt P36894); settings: BMPR1A; 100 nM; read-out: Percent Control
Outline: as §1

human kinome [19] = target: human kinome (Homo sapiens, UniProt P42336, E545K); settings: read-out: Percent Control
Outline: as §1

human kinome [20] = target: human kinome (Homo sapiens, UniProt P22455); settings: FGFR4; 100 nM; read-out: Percent Control
Outline: as §1

human kinome [21] = target: human kinome (Homo sapiens, UniProt P04629); settings: kinase TRKA (Entrez NTRK1); compound concentration 1000 nM; read-out: Percent Control
Outline: as §1

human kinome [22] = target: human kinome (Homo sapiens, UniProt Q96D53); settings: ADCK4; 100 nM; read-out: Percent Control
Outline: as §1

human kinome [23] = target: human kinome (Homo sapiens, UniProt Q9BYP7); settings: kinase WNK3 (Entrez WNK3); compound concentration 1000 nM; read-out: Percent Control
Outline: as §1

human kinome [24] = target: human kinome (Homo sapiens, UniProt Q9NRH2); settings: kinase SNRK (Entrez SNRK); compound concentration 1000 nM; read-out: Percent Control
Outline: as §1

human kinome [25] = target: human kinome (Homo sapiens, UniProt P15056, V600E); settings: BRAF(V600E); 100 nM; read-out: Percent Control
Outline: as §1

human kinome [26] = target: human kinome (Homo sapiens, UniProt O75716); settings: kinase STK16 (Entrez STK16); compound concentration 1000 nM; read-out: Percent Control
Outline: as §1

human kinome [27] = target: human kinome (Homo sapiens, UniProt Q9UM73); settings: ALK; 100 nM; read-out: Percent Control
Outline: as §1

human kinome [28] = target: human kinome (Homo sapiens, UniProt P07949, V804L); settings: kinase RET(V804L) (Entrez RET); compound concentration 1000 nM; read-out: Percent Control
Outline: as §1

human kinome [29] = target: human kinome (Homo sapiens, UniProt P43403); settings: kinase ZAP70 (Entrez ZAP70); compound concentration 1000 nM; read-out: Percent Control
Outline: as §1

Sequence of human kinome (Homo sapiens, UniProt O75676) (O75676 whole entry): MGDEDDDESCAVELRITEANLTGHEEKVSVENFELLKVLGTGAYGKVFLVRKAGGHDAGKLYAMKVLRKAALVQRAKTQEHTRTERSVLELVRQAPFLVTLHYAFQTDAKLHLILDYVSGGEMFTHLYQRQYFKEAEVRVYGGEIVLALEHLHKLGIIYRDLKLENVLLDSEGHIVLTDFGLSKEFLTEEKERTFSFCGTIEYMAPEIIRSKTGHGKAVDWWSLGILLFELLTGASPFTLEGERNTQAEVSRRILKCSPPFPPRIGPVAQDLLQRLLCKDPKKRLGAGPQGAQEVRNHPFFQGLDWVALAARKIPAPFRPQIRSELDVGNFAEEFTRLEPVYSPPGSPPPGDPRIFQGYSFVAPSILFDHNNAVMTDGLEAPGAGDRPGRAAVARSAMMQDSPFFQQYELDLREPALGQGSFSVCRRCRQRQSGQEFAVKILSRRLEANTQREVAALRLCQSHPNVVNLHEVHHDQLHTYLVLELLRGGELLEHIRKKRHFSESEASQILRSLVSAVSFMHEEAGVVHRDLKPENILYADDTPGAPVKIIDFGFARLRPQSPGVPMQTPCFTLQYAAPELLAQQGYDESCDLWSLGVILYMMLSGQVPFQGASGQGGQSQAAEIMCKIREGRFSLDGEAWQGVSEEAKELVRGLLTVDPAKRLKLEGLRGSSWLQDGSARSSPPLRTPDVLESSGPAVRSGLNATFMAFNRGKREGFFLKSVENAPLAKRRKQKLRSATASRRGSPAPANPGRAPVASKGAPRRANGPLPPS
Sequence of human kinome (Homo sapiens, UniProt P42336, E545K) (P42336 whole entry E545K): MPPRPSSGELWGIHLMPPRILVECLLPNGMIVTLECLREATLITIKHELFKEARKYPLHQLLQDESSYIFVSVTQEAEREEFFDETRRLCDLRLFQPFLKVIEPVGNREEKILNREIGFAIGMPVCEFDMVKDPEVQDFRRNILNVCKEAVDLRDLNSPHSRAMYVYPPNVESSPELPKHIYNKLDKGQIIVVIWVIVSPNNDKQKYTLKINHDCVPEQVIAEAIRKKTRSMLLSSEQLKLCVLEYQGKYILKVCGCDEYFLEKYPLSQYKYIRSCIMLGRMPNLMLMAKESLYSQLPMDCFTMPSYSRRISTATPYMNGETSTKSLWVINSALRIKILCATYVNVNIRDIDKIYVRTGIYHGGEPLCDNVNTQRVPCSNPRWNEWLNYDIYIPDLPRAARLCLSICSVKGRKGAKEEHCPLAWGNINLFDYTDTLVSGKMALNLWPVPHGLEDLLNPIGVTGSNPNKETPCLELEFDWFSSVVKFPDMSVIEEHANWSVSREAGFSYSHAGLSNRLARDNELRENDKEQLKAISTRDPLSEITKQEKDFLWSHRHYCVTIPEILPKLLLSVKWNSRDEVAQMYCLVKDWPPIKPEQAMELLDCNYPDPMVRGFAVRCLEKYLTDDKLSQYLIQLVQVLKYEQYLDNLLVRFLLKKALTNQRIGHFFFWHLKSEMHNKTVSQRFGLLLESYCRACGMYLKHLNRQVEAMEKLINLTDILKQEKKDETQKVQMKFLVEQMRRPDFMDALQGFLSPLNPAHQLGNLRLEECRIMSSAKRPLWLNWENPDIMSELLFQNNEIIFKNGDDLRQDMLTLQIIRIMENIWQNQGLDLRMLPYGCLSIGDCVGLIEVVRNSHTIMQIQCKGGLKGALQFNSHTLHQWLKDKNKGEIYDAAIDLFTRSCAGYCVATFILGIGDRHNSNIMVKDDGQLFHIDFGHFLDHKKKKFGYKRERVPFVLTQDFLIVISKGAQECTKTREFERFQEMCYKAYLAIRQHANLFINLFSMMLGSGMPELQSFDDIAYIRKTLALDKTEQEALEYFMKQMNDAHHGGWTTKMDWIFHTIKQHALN
Sequence of human kinome (Homo sapiens, UniProt Q16513) (Q16513 whole entry): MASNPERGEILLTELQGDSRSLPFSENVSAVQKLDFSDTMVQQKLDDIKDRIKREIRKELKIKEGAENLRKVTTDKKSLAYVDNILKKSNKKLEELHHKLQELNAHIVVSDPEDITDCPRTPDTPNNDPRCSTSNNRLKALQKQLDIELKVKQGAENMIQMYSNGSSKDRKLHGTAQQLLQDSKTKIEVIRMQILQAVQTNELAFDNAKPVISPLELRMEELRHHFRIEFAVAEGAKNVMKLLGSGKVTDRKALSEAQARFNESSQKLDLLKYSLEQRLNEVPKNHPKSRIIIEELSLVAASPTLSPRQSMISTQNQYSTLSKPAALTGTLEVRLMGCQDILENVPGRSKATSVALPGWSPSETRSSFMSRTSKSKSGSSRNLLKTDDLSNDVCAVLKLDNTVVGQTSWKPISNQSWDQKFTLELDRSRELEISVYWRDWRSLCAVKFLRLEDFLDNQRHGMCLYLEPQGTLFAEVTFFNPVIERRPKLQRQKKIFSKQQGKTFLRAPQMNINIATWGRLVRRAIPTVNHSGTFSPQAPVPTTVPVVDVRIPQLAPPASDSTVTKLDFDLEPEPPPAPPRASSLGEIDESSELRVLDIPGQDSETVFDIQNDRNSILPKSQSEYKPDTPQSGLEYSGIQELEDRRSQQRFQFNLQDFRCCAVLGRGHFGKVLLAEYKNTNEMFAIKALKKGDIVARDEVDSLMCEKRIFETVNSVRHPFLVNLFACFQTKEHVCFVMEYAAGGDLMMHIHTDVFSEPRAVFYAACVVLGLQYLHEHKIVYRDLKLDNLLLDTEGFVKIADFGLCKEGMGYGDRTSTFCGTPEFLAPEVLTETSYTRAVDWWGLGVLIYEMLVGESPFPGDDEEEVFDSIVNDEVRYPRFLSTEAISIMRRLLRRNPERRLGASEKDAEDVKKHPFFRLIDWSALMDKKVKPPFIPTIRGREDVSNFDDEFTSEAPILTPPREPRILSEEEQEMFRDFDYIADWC
Sequence of human kinome (Homo sapiens, UniProt O75747) (O75747 whole entry): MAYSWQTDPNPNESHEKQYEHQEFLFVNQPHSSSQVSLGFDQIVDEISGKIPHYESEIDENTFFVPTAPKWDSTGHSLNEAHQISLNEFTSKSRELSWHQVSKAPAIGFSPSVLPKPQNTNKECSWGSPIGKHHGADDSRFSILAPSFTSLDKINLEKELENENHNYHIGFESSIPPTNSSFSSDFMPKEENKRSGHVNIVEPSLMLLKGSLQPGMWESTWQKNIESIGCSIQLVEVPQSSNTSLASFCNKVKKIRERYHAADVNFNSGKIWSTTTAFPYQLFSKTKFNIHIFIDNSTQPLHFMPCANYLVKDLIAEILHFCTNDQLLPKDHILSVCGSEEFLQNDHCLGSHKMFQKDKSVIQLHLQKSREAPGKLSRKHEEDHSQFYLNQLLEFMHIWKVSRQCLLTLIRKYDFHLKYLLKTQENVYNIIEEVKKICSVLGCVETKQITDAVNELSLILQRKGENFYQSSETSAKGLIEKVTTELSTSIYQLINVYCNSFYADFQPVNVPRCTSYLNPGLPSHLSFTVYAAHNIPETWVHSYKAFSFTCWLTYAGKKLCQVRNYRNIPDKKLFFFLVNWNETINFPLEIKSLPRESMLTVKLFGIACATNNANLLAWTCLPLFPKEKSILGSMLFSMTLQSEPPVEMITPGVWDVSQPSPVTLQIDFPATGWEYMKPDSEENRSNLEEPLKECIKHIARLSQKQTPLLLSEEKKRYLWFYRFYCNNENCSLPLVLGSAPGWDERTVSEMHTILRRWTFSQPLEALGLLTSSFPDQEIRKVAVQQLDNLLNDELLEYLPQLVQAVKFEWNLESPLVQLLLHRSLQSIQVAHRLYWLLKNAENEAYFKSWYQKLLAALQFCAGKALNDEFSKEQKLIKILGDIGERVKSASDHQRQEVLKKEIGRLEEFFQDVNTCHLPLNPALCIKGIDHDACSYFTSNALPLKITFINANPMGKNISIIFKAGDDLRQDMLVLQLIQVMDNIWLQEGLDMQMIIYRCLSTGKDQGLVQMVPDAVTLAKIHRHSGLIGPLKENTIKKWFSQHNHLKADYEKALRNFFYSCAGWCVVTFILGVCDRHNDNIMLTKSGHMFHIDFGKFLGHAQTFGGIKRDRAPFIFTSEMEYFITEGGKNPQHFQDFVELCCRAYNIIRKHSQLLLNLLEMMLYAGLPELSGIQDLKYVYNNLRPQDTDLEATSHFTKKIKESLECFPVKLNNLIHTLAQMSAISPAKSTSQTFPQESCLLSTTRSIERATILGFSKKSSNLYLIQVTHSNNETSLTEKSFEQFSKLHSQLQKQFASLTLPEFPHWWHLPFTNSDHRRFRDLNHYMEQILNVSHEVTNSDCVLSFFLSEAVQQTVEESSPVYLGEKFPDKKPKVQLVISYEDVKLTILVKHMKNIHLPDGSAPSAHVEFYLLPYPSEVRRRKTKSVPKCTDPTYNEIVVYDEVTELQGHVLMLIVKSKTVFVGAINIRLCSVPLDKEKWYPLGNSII
Sequence of human kinome (Homo sapiens, UniProt P22455) (P22455 22-802): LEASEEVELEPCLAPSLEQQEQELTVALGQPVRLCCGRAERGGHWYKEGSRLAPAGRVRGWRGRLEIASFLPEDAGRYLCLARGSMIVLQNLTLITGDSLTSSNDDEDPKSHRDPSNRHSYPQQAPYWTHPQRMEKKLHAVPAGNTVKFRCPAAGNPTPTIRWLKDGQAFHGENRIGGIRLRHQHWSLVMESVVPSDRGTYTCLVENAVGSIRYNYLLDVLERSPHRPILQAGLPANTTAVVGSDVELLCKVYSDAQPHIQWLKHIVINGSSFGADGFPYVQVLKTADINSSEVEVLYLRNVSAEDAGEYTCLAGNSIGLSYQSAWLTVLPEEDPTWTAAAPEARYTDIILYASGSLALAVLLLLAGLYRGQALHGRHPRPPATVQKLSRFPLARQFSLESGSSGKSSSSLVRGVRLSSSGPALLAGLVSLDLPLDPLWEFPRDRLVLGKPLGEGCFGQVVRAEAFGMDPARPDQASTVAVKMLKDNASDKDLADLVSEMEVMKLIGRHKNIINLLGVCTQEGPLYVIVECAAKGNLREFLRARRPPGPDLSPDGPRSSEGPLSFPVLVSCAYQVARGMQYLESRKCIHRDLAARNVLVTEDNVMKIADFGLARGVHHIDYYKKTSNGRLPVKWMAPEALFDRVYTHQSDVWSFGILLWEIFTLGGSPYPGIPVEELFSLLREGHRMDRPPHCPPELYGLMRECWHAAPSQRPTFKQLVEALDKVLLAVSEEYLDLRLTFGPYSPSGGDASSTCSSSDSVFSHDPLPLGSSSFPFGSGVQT

In the case of `COc1cc(F)ccc1-c1cc(Nc2cc(CS(C)(=N)=O)ccn2)ncc1F` (stereo not drawn) [VIP152], the remaining binding at 0.1 µM (human kinome [1]) is reported as 98%, the remaining binding at 0.1 µM (human kinome [2]) is reported as 73% and the remaining binding at 0.1 µM (human kinome [3]) is reported as 100%. It also gave a remaining binding at 0.1 µM (human kinome [4]) of 100%, a remaining binding at 0.1 µM (human kinome [5]) of 100% and a remaining binding at 0.1 µM (human kinome [6]) of 100%. It also gave a remaining binding at 1 µM (human kinome [7]; kinase RPS6KA4(Kin.Dom.1-N-terminal) (Entrez RPS6KA4)) of 85%, a remaining binding at 1 µM (human kinome [7]; kinase RPS6KA4(Kin.Dom.2-C-terminal) (Entrez RPS6KA4)) of 71% and a remaining binding at 0.1 µM (human kinome [8]; PIK3C2G, 100 nM) of 100%. The remaining binding at 1 µM (human kinome [8]; kinase PIK3C2G (Entrez PIK3C2G), compound concentration 1000 nM) was 94%, the remaining binding at 0.1 µM (human kinome [9]) was 100% and the remaining binding at 0.1 µM (human kinome [10]; PKN2, 100 nM) was 96%. It also gave a remaining binding at 1 µM (human kinome [10]; kinase PKN2 (Entrez PKN2), compound concentration 1000 nM) of 92%, a remaining binding at 0.1 µM (human kinome [11]) of 94% and a remaining binding at 0.1 µM (human kinome [12]) of 100%. The remaining binding at 0.1 µM (human kinome [13]) was 79%, the remaining binding at 0.1 µM (human kinome [14]) was 100% and the remaining binding at 0.1 µM (human kinome [15]) was 100%. The remaining binding at 1 µM (human kinome [16]) was 27%, the remaining binding at 0.1 µM (human kinome [17]) was 100% and the remaining binding at 0.1 µM (human kinome [18]) was 100%. It also gave a remaining binding at 0.1 µM (human kinome [19]; PIK3CA(E545K), 100 nM) of 92%, a remaining binding at 1 µM (human kinome [19]; kinase PIK3CA(E545K) (Entrez PIK3CA), compound concentration 1000 nM) of 93% and a remaining binding at 0.1 µM (human kinome [20]) of 100%. It also gave a remaining binding at 1 µM (human kinome [21]) of 9.8%, a remaining binding at 0.1 µM (human kinome [22]) of 100% and a remaining binding at 1 µM (human kinome [23]) of 92%. The remaining binding at 1 µM (human kinome [24]) was 90%, the remaining binding at 0.1 µM (human kinome [25]) was 100% and the remaining binding at 1 µM (human kinome [26]) was 44%. It also gave a remaining binding at 0.1 µM (human kinome [27]) of 100%, a remaining binding at 1 µM (human kinome [28]) of 86% and a remaining binding at 1 µM (human kinome [29]) of 80%.
